Where two headings read alike, the source gives them in different places.
Tests used:
MGC-803 = assay: CCK-8 proliferation, MGC-803 (heads: MGC80-3, MGC803); assay type: cell-based, Human; settings: Table B10, compounds designed based on the IRAK4 inhibitors, MGC803 cells, read-out: Inhibitory activity (IC50, nM) on tumor cell proliferation, MGC803
Description: (§1) The tumor cells used herein were cultured in a cell culture medium listed in table A1 at 37°C in an incubator with 5% CO2. Prior to experimentation, all cell lines used were correctly identified by STR profiling, and tested negative for mycoplasma contamination using a mycoplasma detection kit through routine screenings. Table A1. Tumor cells and cell culture medium used in the present disclosure
(§2) IC50 values of the compounds of the present disclosure (including the compounds in Table 1, and compounds of examples) were measured using the Meilun Cell Counting Kit-8 kit from Dalian Meilun Biotech Co., Ltd. Assay details are as follows: tumor cells were seeded in a 96-well plate at a density listed in Table A2. After 24h, 100 µL of the inoculated cells were treated with 0.5µL of the compounds of the present disclosure (including the compounds in Tables 1 and 2, and compounds of examples) at 10 different successively decreasing concentrations (starting at the highest concentration of 10µM; 5-fold serial dilutions). After the cells were treated with the compounds of the present disclosure for a period of time, the cell viability detection reagent was added to the culture medium for cell viability assessment according to the instructions provided with the CCK-8 kit. […] The growth inhibition of the compounds of the present disclosure on cells was plotted by Prism Graphpad software, and the IC50 values of the compounds of the present disclosure were calculated therefrom. […] Seeding protocol and treatment time for tumor cells

IRAK4 = biological target: T1, IRAK4 (Homo sapiens, UniProt Q9NWZ3); assay: Western blot degradation of IRAK4 (hPBMC); assay type: cell-based; settings: Table D1
T1 construct: evaluate the effects of the compounds of the present disclosure on the expression of target proteins in cells; endogenous in cells; host or cells: hPBMC
T1 sequence (Q9NWZ3 1-460): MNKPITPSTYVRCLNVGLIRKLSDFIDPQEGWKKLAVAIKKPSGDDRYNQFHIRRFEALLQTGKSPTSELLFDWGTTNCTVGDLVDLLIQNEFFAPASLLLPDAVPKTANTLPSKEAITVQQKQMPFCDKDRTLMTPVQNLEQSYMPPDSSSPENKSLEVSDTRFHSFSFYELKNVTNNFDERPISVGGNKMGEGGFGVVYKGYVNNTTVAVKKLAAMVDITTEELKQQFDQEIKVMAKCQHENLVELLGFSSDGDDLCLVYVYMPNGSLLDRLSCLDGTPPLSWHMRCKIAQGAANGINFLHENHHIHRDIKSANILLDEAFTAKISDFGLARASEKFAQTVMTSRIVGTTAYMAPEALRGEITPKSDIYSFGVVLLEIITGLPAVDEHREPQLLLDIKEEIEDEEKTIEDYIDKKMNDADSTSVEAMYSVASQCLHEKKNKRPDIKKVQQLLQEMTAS
Outline: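 After compound exposure, cells were harvested and lysates run on SDS-PAGE, transferred to nitrocellulose and probed with antibodies. Remaining target (%) was computed from band grayscale relative to an internal control protein and normalised; degradation (%) was 100% minus that.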

MM.1S = assay: CCK-8 proliferation, MM.1S; assay type: cell-based; settings: Table B10, compounds designed based on the IRAK4 inhibitors, MM.1S cells, read-out: Inhibitory activity (IC50, nM) on tumor cell proliferation, MM.1S
Outline: (§3)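 Tumor cells were cultured at 37°C with 5% CO2, seeded, and after 24h treated with compounds at 10 concentrations starting at 10µM (5-fold serial dilutions).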

Jurkat = assay: CCK-8 proliferation, Jurkat; assay type: cell-based, Human; settings: Table B10, compounds designed based on the IRAK4 inhibitors, Jurkat cells, read-out: Inhibitory activity (IC50, nM) on tumor cell proliferation, Jurkat
Outline: as §3

H1299 = assay: CCK-8 proliferation, H1299; set-up: species or system Human; settings: Table B10, compounds designed based on the IRAK4 inhibitors, H1299 cells, read-out: Inhibitory activity (IC50, nM) on tumor cell proliferation, H1299
Description: as §1, §2

SR = assay: CCK-8 proliferation, SR; assay type: cell-based, Human; settings: Table B10, compounds designed based on the IRAK4 inhibitors, SR cells, read-out: Inhibitory activity (IC50, nM) on tumor cell proliferation, SR
Outline: as §3

| SMILES | IC50 (MGC-803; Homo sapiens, MGC-803) [nM] | Degradation of substrate protein IRAK4 (substrate protein remaining %) (IRAK4) | IC50 (MM.1S; Homo sapiens, MM1.S) [nM] | IC50 (Jurkat; Homo sapiens) [nM] | IC50 (H1299; Homo sapiens, NCI-H1299) [nM] | IC50 (SR; Homo sapiens) [nM] | IC50 (MGC-803) [nM] | IC50 (MM.1S) [nM] | IC50 (Jurkat) [nM] | IC50 (H1299) [nM] | IC50 (SR) [nM] |
| --- | --- | --- | --- | --- | --- | --- | --- | --- | --- | --- | --- |
| O=C1CCN(c2cccc(CN3CCN(c4ccc(-n5cc(NC(=O)c6coc(-c7ccnc(NCC8CC8)c7)n6)c(C(F)F)n5)cc4)CC3)c2)C(=O)N1 [GT-04968, 2-(2-((cyclopropylmethyl)amino)pyridin-4-yl)-N-(3-(difluoromethyl)-1-(4-(4-(3-(2,4-dioxotetrahydropyrimidin-1(2H)-yl)benzyl)piperazin-1-yl)phenyl)-1H-pyrazol-4-yl)oxazole-4-carboxamide] | 100 to 500 | A (A is defined as 0% ≤ substrate protein remaining % ≤ 80%) | 10 to 50 | 100 to 500 | 100 to 500 | 100 to 500 |  |  |  |  |  |
| O=C1CCC(Nc2cccc(CN3CCN(c4ccc(-n5cc(NC(=O)c6coc(-c7ccnc(NCC8CC8)c7)n6)c(C(F)F)n5)cc4)CC3)c2)C(=O)N1 (centres unmarked) [GT-04969, 2-(2-((cyclopropylmethyl)amino)pyridin-4-yl)-N-(3-(difluoromethyl)-1-(4-(4-(3-((2,6-dioxopiperidin-3-yl)amino)benzyl)piperazin-1-yl)phenyl)-1H-pyrazol-4-yl)oxazole-4-carboxamide] | 100 to 500 | A (A is defined as 0% ≤ substrate protein remaining % ≤ 80%) | 100 to 500 | 100 to 500 | 100 to 500 | 100 to 500 |  |  |  |  |  |
| O=C1CCN(c2ccc(CN3CCN(c4ccc(-n5cc(NC(=O)c6coc(-c7ccnc(NCC8CC8)c7)n6)c(C(F)F)n5)cc4)CC3)cn2)C(=O)N1 [GT-04970, 2-(2-((cyclopropylmethyl)amino)pyridin-4-yl)-N-(3-(difluoromethyl)-1-(4-(4-((6-(2,4-dioxotetrahydropyrimidin-1(2H)-yl)pyridin-3-yl)methyl)piperazin-1-yl)phenyl)-1H-pyrazol-4-yl)oxazole-4-carboxamide] | 50 to 100 | A (A is defined as 0% ≤ substrate protein remaining % ≤ 80%) | 50 to 100 | 100 to 500 | 100 to 500 | 50 to 100 |  |  |  |  |  |
| O=C1CCC(c2ccc(CN3CCN(c4ccc5c(c4)nc(NC(=O)c4cccc(C(F)(F)F)c4)n5C4CCC(CO)CC4)CC3)cc2)C(=O)N1 (centres unmarked) [GT-04981, N-(5-(4-(4-(2,6-dioxopiperidin-3-yl)benzyl)piperazin-1-yl)-1-((1s,4s)-4-(hydroxymethyl)cyclohexyl) -1H-benzo[d]imidazol-2-yl)-3-(trifluoromethyl)benzamide] | 500 to 1000 | A (A is defined as 0% ≤ substrate protein remaining % ≤ 80%) | 100 to 500 | 500 to 1000 | 500 to 1000 | 100 to 500 |  |  |  |  |  |
| O=C1CCN(c2ccc(CN3CCN(c4ccc5c(c4)nc(NC(=O)c4cccc(C(F)(F)F)c4)n5[C@H]4CC[C@@H](CO)CC4)CC3)cc2)C(=O)N1 [GT-04982, N-(5-(4-(4-(2,4-dioxotetrahydropyrimidin-1(2H)-yl)benzyl)piperazin-1-yl)-1-((1s,4s)-4-(hydroxymethyl)cyclohexyl) -1H-benzo[d]imidazol-2-yl)-3-(trifluoromethyl)benzamide] | 100 to 500 | A (A is defined as 0% ≤ substrate protein remaining % ≤ 80%) | 50 to 100 | 100 to 500 | 100 to 500 | 100 to 500 |  |  |  |  |  |
| O=C1CCN(c2ccc(CN3CCN(c4ccc5c(c4)nc(NC(=O)c4cccc(C(F)(F)F)c4)n5[C@H]4CC[C@@H](CO)CC4)CC3)cn2)C(=O)N1 [GT-04987, N-(5-(4-((6-(2,4-dioxotetrahydropyrimidin-1(2H)-yl)pyridin-3-yl)methyl)piperazin-1-yl)-1-((1s,4s)-4-(hydroxymethyl)cyclohexyl) -1H-benzo[d]imidazol-2-yl)-3-(trifluoromethyl)benzamide] |  |  |  |  |  |  | 100 to 500 | 100 to 500 | 100 to 500 | 100 to 500 | 100 to 500 |

Reference: patent publication EP4678638A1, “NEW E3 UBIQUITIN LIGASE LIGAND, PROTEIN DEGRADATION AGENT AND USE THEREOF” (priority 2023, dated 2024)
